# Reference: ChEMBL document CHEMBL2417425, “Design and synthesis of positional isomers of 5 and 6-bromo-1-[(phenyl)sulfonyl]-2-[(4-nitrophenoxy)methyl]-1H-benzimidazoles as possible antimicrobial and antitubercular agents” (2013)
# Test system: Mycobacterium tuberculosis
# Experiment: Antimycobacterial activity against multidrug-resistant Mycobacterium tuberculosis assessed as growth inhibition at 0.3125 to 5 ug/mL by resazurin assay
# Type: functional
row,Compound,MIC [µg/mL]
1,N#Cc1cccc(S(=O)(=O)n2c(COc3ccc([N+](=O)[O-])cc3)nc3cc(Br)ccc32)c1,> 50
2,Cc1c(F)cccc1S(=O)(=O)n1c(COc2ccc([N+](=O)[O-])cc2)nc2cc(Br)ccc21,> 50
3,O=[N+]([O-])c1ccc(OCc2nc3cc(Br)ccc3n2S(=O)(=O)c2ccccc2Cl)cc1,6.25
4,COc1ccc(S(=O)(=O)n2c(COc3ccc([N+](=O)[O-])cc3)nc3cc(Br)ccc32)c(OC)c1,> 50
5,Cc1cccc(S(=O)(=O)n2c(COc3ccc([N+](=O)[O-])cc3)nc3cc(Br)ccc32)c1,> 50
6,COc1ccc(OC)c(S(=O)(=O)n2c(COc3ccc([N+](=O)[O-])cc3)nc3ccc(Br)cc32)c1,25
7,O=[N+]([O-])c1ccc(OCc2nc3ccc(Br)cc3n2S(=O)(=O)c2cc(F)ccc2F)cc1,> 50
8,O=[N+]([O-])c1ccc(OCc2nc3ccc(Br)cc3n2S(=O)(=O)c2cc(Cl)ccc2Cl)cc1,> 50
9,O=[N+]([O-])c1ccc(OCc2nc3ccc(Br)cc3n2S(=O)(=O)c2ccccc2[N+](=O)[O-])cc1,> 50
10,N#Cc1cccc(S(=O)(=O)n2c(COc3ccc([N+](=O)[O-])cc3)nc3ccc(Br)cc32)c1,> 50
11,Cc1c(F)cccc1S(=O)(=O)n1c(COc2ccc([N+](=O)[O-])cc2)nc2ccc(Br)cc21,> 50
12,COc1ccc(S(=O)(=O)n2c(COc3ccc([N+](=O)[O-])cc3)nc3ccc(Br)cc32)c(OC)c1,2.5
13,Cc1cccc(S(=O)(=O)n2c(COc3ccc([N+](=O)[O-])cc3)nc3ccc(Br)cc32)c1,> 50
14,Nc1ccc(OCc2nc3cc(Br)ccc3[nH]2)cc1,25
15,COc1ccc(OC)c(S(=O)(=O)n2c(COc3ccc([N+](=O)[O-])cc3)nc3cc(Br)ccc32)c1,> 50
16,O=[N+]([O-])c1ccc(OCc2nc3cc(Br)ccc3n2S(=O)(=O)c2cc(F)ccc2F)cc1,6.25
17,O=[N+]([O-])c1ccc(OCc2nc3cc(Br)ccc3n2S(=O)(=O)c2ccc(Cl)cc2Cl)cc1,> 50
18,O=[N+]([O-])c1ccc(OCc2nc3cc(Br)ccc3n2S(=O)(=O)c2cc(Cl)ccc2Cl)cc1,> 50
19,O=[N+]([O-])c1ccc(OCc2nc3cc(Br)ccc3n2S(=O)(=O)c2ccccc2[N+](=O)[O-])cc1,6.25
20,NNC(=O)c1ccncc1 [ISONIAZID],12.5
21,CO[C@H]1/C=C/O[C@@]2(C)Oc3c(C)c(O)c4c(O)c(c(/C=N/N5CCN(C)CC5)c(O)c4c3C2=O)NC(=O)/C(C)=C\C=C\[C@H](C)[C@H](O)[C@@H](C)[C@@H](O)[C@@H](C)[C@H](OC(C)=O)[C@@H]1C [RIFAMPIN],25
